Measured values published in ChEMBL document CHEMBL5154927, “Discovery of Novel Bicyclic Phenylselenyl-Containing Hybrids: An Orally Bioavailable, Potential, and Multiacting Class of Estrogen Receptor Modulators against Endocrine-Resistant Breast Cancer” (J Med Chem, 2022).
Calls of active or inactive are those of the source. The rule behind the calls is not given here.

What was measured:
[1] = Oral bioavailability in BALB/C mouse at 20 mg/kg by LC-MS/MS analysis; format: ADME, organism-based; conditions: in vivo
MCF7 [2] = test: Induction of apoptosis in human MCF7 cells assessed as total apoptotic cells at 1 uM incubated for 48 hrs by annexin V-FITC staining based flow cytometry; format: functional
MCF7 [3] = test: Antitumor activity against human MCF7 cells xenografted in BALB/C mouse assessed as suppression of tumor growth at 10 to 20 mg/kg, po measured every 2 days for 34 days; format: functional, organism-based; conditions: dose 10-20 mg/kg, time 34.0 day
MCF7 [4] = test: Downregulation of hexokinase-1 expression in human MCF7 cell outer mitochondrial membrane at 1 to 16 uM measured after 24 hrs by Western blot analysis; format: functional; conditions: Mitochondria, dose 1-16 µM
LCC2 [5] = test: Downregulation of hexokinase-1 expression in tamoxifen-resistant human LCC2 cell mitochondria at 20 uM measured after 24 hrs by DAPI staining based immunofluorescence microscopy; format: functional
[6] = Cmax in BALB/C mouse at 20 mg/kg, po by LC-MS/MS analysis; format: ADME, organism-based; set-up: dose 20 mg/kg, route po; conditions: in vivo
MCF7 [7] = test: Induction of apoptosis in human MCF7 cells assessed as decrease in Bcl-2/Bax ratio by western blot analysis; format: functional, cell-based; conditions: DDE = dose-dependent effect
[8] = Volume of distribution at steady state in BALB/C mouse at 5 mg/kg, iv by LC-MS/MS analysis; format: ADME, organism-based; conditions: in vivo, read-out: Vdss
[9] = Toxicity in BALB/C mouse xenografted with tamoxifen-resistant human LCC2 cells assessed as mortality at 20 mg/kg, po measured after 22 days; format: organism-based; conditions: in vivo, 528 h, time 22 day
[10] = Toxicity in BALB/C mouse xenografted with human MCF7 cells assessed as morphological changes in kidney at 10 to 20 mg/kg, po by hematoxylin and eosin staining based analysis; format: organism-based; conditions: in vivo, dose 10-20 mg/kg
[11] = AUC in BALB/C mouse at 20 mg/kg, po by LC-MS/MS analysis; format: ADME, organism-based; set-up: dose 20 mg/kg, route po; conditions: in vivo
[12] = Cmax in BALB/C mouse at 5 mg/kg, iv by LC-MS/MS analysis; format: ADME, organism-based; set-up: dose 5 mg/kg, route iv; conditions: in vivo
MCF7 [13] = test: Induction of mitochondrial membrane potential loss in human MCF7 cells at 4 uM incubated for 48 hrs by JC-1 staining based flow cytometry relative to control; format: functional
[14] = Toxicity in BALB/C mouse xenografted with human MCF7 cells assessed as morphological changes in liver at 10 to 20 mg/kg, po by hematoxylin and eosin staining based analysis; format: organism-based; conditions: in vivo, dose 10-20 mg/kg
MCF7 [15] = test: Antitumor activity against human MCF7 cells xenografted in BALB/C mouse assessed as reduction of tumor weight at 20 mg/kg, po measured every 2 days for 34 days; format: functional, organism-based; conditions: time 34.0 day
MCF7 [16] = test: Antitumor activity against human MCF7 cells xenografted in BALB/C mouse assessed as decrease in cell proliferation at 20 mg/kg, po by Ki67 staining based immunohistochemical analysis; format: functional, organism-based
[17] = Tmax in BALB/C mouse at 5 mg/kg, iv by LC-MS/MS analysis; format: ADME, organism-based; conditions: in vivo
[18] = Antitumor activity against tamoxifen-resistant human LCC2 cells xenografted in BALB/C mouse assessed as tumor growth inhibition at 20 mg/kg, po measured every 2 days for 22 days; format: functional; conditions: LCC2, 528 h, time 22 day, read-out: TGI
MCF7 [19] = test: Antitumor activity against human MCF7 cells xenografted in BALB/C mouse assessed as reduction of tumor volume at 20 mg/kg, po measured every 2 days for 34 days; format: functional, organism-based; conditions: time 34.0 day
MCF7 [20] = test: Induction of ROS production in human MCF7 cells at 1 to 4 uM measured after 48 hrs by DCFH-DA staining based confocal laser scanning microscopic method; format: functional, cell-based; conditions: dose 1-4 µM
MCF7 [21] = test: Induction of mitochondrial membrane potential loss in human MCF7 cells at 1 uM incubated for 48 hrs by JC-1 staining based flow cytometry relative to control; format: functional
LCC2 [22] = test: Induction of apoptosis in tamoxifen-resistant human LCC2 cells assessed as decrease in Bcl-2/Bax ratio by western blot analysis; format: functional, cell-based; conditions: DDE = dose-dependent effect
[23] = Antiproliferative activity against human MCF-10A cells assessed as reduction in cell viability measured after 72 hrs by Cell Counting Kit-8 assay; format: toxicity, cell-based
[24] = Toxicity in BALB/C mouse xenografted with tamoxifen-resistant human LCC2 cells assessed as effect on body weight at 20 mg/kg, po measured after 22 days; format: organism-based; conditions: in vivo, 528 h, time 22 day
MCF7 [25] = test: Induction of apoptosis in human MCF7 cells assessed as decrease in Bcl2 level at 0.5 to 4 uM incubated for 48 hrs by western blot analysis; format: functional, cell-based; conditions: dose 0.5-4 µM
MCF7 [26] = test: Induction of apoptosis in human MCF7 cells assessed as total apoptotic cells at 4 uM incubated for 48 hrs by annexin V-FITC staining based flow cytometry; format: functional
[27] = Clearance in BALB/C mouse at 5 mg/kg, iv by LC-MS/MS analysis; format: ADME, organism-based; conditions: in vivo
[28] = target: T1, Hexokinase-1 (Homo sapiens) (UniProt P19367); test: Inhibition of human recombinant hexokinase-1 assessed as NADPH generation measured after 1 hr by HPLC analysis; conditions: DDE = dose-dependent effect
T1 sequence (whole entry): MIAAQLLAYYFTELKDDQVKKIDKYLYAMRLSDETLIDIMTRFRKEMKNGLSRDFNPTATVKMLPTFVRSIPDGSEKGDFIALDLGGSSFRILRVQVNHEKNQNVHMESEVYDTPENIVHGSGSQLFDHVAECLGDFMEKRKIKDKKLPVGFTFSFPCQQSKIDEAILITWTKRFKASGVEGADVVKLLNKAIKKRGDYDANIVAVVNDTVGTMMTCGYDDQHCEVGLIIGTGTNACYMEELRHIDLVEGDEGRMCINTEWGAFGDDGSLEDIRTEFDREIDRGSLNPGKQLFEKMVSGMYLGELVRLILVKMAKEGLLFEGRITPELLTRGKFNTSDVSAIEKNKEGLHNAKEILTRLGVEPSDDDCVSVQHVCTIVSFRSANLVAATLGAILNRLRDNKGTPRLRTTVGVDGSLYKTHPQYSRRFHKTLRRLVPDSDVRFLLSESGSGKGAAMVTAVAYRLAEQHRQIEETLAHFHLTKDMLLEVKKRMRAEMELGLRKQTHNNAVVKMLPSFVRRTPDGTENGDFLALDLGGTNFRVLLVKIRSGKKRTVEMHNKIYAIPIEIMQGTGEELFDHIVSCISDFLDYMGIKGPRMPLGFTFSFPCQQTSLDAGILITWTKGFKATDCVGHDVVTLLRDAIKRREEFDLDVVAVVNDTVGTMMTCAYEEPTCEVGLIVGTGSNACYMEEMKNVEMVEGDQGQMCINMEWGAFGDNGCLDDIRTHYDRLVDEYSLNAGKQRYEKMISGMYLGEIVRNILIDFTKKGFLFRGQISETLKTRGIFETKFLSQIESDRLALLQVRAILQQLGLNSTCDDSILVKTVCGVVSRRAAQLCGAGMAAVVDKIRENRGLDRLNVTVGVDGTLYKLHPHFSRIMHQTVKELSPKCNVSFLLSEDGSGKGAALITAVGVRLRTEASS

[29] = Half life in BALB/C mouse at 5 mg/kg, iv by LC-MS/MS analysis; format: ADME, organism-based; conditions: in vivo

O=S(=O)(Oc1cccc2ccccc12)C1CC2OC1C(c1ccc([Se]c3ccccc3)cc1)=C2c1ccc(O)cc1 (centres undefined)
bioavailability [1]: 23.2% | Activity (MCF7 [2]): 15.15% | Activity (MCF7 [3]): Active | Activity (MCF7 [4]): Active | Activity (LCC2 [5]): Active | Cmax [6]: 400 ng/mL | Activity (MCF7 [7]): Dde | Vd [8]: 21.6 L/kg | Activity [9]: Non-Toxic | Activity [10]: Non-Toxic | AUC [11]: 1430 ng·h/mL | Cmax [12]: 1490 ng/mL | Activity (MCF7 [13]): 13.87% | Activity [14]: Non-Toxic | Activity (MCF7 [15]): Active | Activity (MCF7 [16]): Active | Tmax [17]: 4.98 min | inhibition in vivo at 20 mg/kg [18]: 57.3% | Activity (MCF7 [19]): Active | Activity (MCF7 [20]): Active | Activity (MCF7 [21]): 9.61% | Activity (LCC2 [22]): Dde | IC50 at 72 h [23]: > 60 µM | Activity [24]: Non-Toxic | Activity (MCF7 [25]): Active | Activity (MCF7 [26]): 19.98% | clearance [27]: 52.7 mL/min/kg | Activity [28]: Dde | half-life [29]: 4.65 h
